What was measured:
Format in all cases: cell-based
Conditions in all cases: fluorescent calcium assay
TRPML3 = target: T1, TRPML3 (Homo sapiens, UniProt Q8TDD5); assay: Fluorescent TRPML3 assay (performed as for TRPML1, substituting the TRPML3 subtype)
T1 construct: expressed in transfected cells
T1 sequence (Q8TDD5 1-553): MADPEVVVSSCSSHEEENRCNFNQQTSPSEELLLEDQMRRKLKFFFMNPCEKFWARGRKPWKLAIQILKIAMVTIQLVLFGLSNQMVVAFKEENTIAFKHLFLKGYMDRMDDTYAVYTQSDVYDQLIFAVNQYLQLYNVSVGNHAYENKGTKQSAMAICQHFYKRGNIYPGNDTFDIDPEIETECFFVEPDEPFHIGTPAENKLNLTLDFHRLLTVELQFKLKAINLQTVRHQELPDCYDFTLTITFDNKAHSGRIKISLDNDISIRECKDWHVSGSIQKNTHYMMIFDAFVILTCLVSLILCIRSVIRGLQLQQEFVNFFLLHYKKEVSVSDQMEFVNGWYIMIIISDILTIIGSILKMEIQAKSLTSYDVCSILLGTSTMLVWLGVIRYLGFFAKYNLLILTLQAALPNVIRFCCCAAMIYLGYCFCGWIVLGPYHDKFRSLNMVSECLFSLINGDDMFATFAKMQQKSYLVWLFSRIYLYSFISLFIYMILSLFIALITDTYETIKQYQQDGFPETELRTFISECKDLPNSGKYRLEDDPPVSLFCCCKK
Method in brief: (§1)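 HEK-293 Trex cells with doxycycline-induced (0.5 ug/mL) surface-directed human TRPML subtype, loaded with 1 μM Fluo4-AM, resuspended in Ringer's with 10 mM calcium. Compounds at 20 μM to 6 nM final in half-log steps, triplicate; fluorescence ex 480/em 540; EC50 by non-linear regression versus plate controls.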

TRPML2 = target: T2, TRPML2 (Homo sapiens, UniProt Q8IZK6); assay: Fluorescent TRPML2 assay (performed as for TRPML1, substituting the TRPML2 subtype)
T2 construct: expressed in transfected cells
T2 sequence (Q8IZK6 1-566): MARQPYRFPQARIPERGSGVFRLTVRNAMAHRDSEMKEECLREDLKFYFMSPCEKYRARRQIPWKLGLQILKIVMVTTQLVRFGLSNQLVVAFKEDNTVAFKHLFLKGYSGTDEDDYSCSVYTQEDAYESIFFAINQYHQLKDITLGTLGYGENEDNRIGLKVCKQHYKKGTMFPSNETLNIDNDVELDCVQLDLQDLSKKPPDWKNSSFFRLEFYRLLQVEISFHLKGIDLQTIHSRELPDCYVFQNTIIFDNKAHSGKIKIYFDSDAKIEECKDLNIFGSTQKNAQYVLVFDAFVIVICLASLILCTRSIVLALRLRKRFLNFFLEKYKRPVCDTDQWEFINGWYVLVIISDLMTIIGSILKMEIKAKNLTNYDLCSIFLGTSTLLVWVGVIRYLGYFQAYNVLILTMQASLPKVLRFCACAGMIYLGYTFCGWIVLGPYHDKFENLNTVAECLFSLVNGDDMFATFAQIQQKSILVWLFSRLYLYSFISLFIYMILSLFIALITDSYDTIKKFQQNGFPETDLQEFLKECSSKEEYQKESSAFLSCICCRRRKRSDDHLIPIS
Method in brief: as §1

TRPML1 = TRPML1 (Homo sapiens, UniProt Q9GZU1); assay: Fluorescent TRPML1 assay (Fluo4-AM calcium fluorescence in doxycycline-induced HEK-293 Trex cells)
Method in brief: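 EC50 values come from non-linear regression of percent activity, normalized to on-plate positive and negative controls, with fluorescence read at 480 nm excitation and 540 nm emission. Fluo4-AM-loaded (1 µM) doxycycline-induced HEK-293 Trex cells expressing mutated human TRPML1 were exposed in 10 mM calcium Ringer's to 6 nM–20 µM compound, in triplicate.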

Sequence of TRPML1 (Q9GZU1 whole entry L15A/L16A/L577A/L578A, form open): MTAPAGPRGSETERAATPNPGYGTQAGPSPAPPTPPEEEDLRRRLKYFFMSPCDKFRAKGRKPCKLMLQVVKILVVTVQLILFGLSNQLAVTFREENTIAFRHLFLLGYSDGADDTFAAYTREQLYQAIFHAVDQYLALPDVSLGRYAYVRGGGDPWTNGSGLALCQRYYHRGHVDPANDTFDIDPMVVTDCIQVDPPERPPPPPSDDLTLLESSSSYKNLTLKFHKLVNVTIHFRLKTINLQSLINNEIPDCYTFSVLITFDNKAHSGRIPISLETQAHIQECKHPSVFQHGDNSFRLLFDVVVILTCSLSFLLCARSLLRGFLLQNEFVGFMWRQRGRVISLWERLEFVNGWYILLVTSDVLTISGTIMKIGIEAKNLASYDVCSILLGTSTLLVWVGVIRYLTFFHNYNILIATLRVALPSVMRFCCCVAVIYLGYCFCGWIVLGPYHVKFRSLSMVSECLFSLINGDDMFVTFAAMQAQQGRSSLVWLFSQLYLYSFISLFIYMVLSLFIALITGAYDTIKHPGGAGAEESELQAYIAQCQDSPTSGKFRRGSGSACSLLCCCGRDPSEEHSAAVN

Row | EC50 (TRPML3) | EC50 (TRPML2) | EC50 (TRPML1) | SMILES
1 | 100 to 500 nM | 500 to 2000 nM | 100 to 500 nM | Cc1nccnc1-c1cn(-c2cccc(Cl)c2)c2ncnc(N3CCN(C(=O)OC(C)(C)C)CC3C)c12 (stereo not drawn) [Compound 161, tert-butyl 4-(7-(3-chlorophenyl)-5-(3-methylpyrazin-2-yl)-7H-pyrrolo[2,3-d]pyrimidin-4-yl)-3-methylpiperazine-1-carboxylate]
2 | 100 to 500 nM | 500 to 2000 nM | 500 to 2000 nM | Cc1c(Cl)cccc1-n1cc(-c2cnccn2)c2c(N3CCN(C(=O)OC(C)(C)C)CC3C)ncnc21 (stereo not drawn) [Compound 162, tert-butyl 4-(7-(3-chloro-2-methylphenyl)-5-(pyrazin-2-yl)-7H-pyrrolo[2,3-d]pyrimidin-4-yl)-3-methylpiperazine-1-carboxylate]
3 | 100 to 500 nM | 500 to 2000 nM | 500 to 2000 nM | Cc1ccc(Cl)cc1-n1cc(-c2cnccn2)c2c(N3CCN(C(=O)OC(C)(C)C)CC3C)ncnc21 (stereo not drawn) [Compound 163, tert-butyl 4-(7-(5-chloro-2-methylphenyl)-5-(pyrazin-2-yl)-7H-pyrrolo[2,3-d]pyrimidin-4-yl)-3-methylpiperazine-1-carboxylate]
4 | < 100 nM | 100 to 500 nM | < 100 nM | CC1CN(C(=O)OC(C)(C)C)CCN1c1ncnc2c1c(C1CC1)cn2-c1cncc(Cl)c1 (stereo not drawn) [Compound 164, tert-butyl 4-(7-(5-chloropyridin-3-yl)-5-cyclopropyl-7H-pyrrolo[2,3-d]pyrimidin-4-yl)-3-methylpiperazine-1-carboxylate]
5 | 100 to 500 nM | 500 to 2000 nM | 100 to 500 nM | Cc1cncc(-n2cc(C3CC3)c3c(N4C[C@@H](C)N(C(=O)OC(C)(C)C)C[C@@H]4C)ncnc32)c1 [Compound 165, tert-butyl (2R,5S)-4-(5-cyclopropyl-7-(5-methylpyridin-3-yl)-7H-pyrrolo[2,3-d]pyrimidin-4-yl)-2,5-dimethylpiperazine-1-carboxylate]
6 | 100 to 500 nM | 500 to 2000 nM | 100 to 500 nM | CCc1cncc(-n2cc(C3CC3)c3c(N4CCN(C(=O)OC(C)(C)C)CC4)ncnc32)c1 [Compound 166, tert-butyl 4-(5-cyclopropyl-7-(5-ethylpyridin-3-yl)-7H-pyrrolo[2,3-d]pyrimidin-4-yl)piperazine-1-carboxylate]
7 | < 100 nM | 500 to 2000 nM | 100 to 500 nM | C[C@@H]1CN(c2ncnc3c2c(C2CC2)cn3-c2cncc(C(F)(F)F)c2)[C@@H](C)CN1C(=O)OC(C)(C)C [Compound 167, tert-butyl (2R,5S)-4-(5-cyclopropyl-7-(5-(trifluoromethyl)pyridin-3-yl)-7H-pyrrolo[2,3-d]pyrimidin-4-yl)-2,5-dimethylpiperazine-1-carboxylate]
8 | 500 to 2000 nM | > 2000 nM | 500 to 2000 nM | C[C@@H]1CN(c2ncnc3c2c(C2CC2)cn3-c2cccnc2)[C@@H](C)CN1C(=O)OC(C)(C)C [Compound 168, tert-butyl (2R,5S)-4-(5-cyclopropyl-7-(pyridin-3-yl)-7H-pyrrolo[2,3-d]pyrimidin-4-yl)-2,5-dimethylpiperazine-1-carboxylate]
9 | < 100 nM | 500 to 2000 nM | < 100 nM | C[C@@H]1CN(c2ncnc3c2c(-c2ccccc2)cn3-c2cccnc2)[C@@H](C)CN1C(=O)OC(C)(C)C [Compound 169, tert-butyl (2R,5S)-2,5-dimethyl-4-(5-phenyl-7-(pyridin-3-yl)-7H-pyrrolo[2,3-d]pyrimidin-4-yl)piperazine-1-carboxylate]
10 | < 100 nM | 500 to 2000 nM | 100 to 500 nM | C[C@H]1CN(C(=O)OC(C)(C)C)CCN1c1ncnc2c1c(-c1ccccc1)cn2-c1cnn(C)c1 [Compound 170, tert-butyl (S)-3-methyl-4-(7-(1-methyl-1H-pyrazol-4-yl)-5-phenyl-7H-pyrrolo[2,3-d]pyrimidin-4-yl)piperazine-1-carboxylate]

Reference: US20250136606A1, “MODULATORS OF TRPML, THEIR COMPOSITIONS AND METHODS OF USE” (Caraway Therapeutics, Inc., priority 2021, published 2025)
